# From patent US9149535B2, “Polymers and the preparation of nanogel drug cocktails” (University of South Carolina, priority 2012, dated 2015)
# Test system: cancer cells
# Assay: Intracellular trafficking by confocal laser scanning microscopy (CLSM)
# Format: cell-based
# Settings: 3 hr
# Description: To monitor the intracellular trafficking of nanogel, confocal laser scanning microscopy (CLSM) was employed. […] Since only about 20% DOX could be released from nanogel under the intracellular environment (FIG. 2A), the signals should mainly represent ND nanogel. […] Due to its relatively large size, it will be impossible for it to pass the nuclear pore complex, which is about 40 nm.
compound,measurement,value
"COc1cccc2c1C(=O)c1c(O)c3c(c(O)c1C2=O)C[C@@](O)(C(=O)CO)C[C@@H]3O[C@H]1C[C@H](N)[C@H](O)[C@H](C)O1 [DOX, doxorubicin]",intracellular localisation,preferentially labels their nuclei
